# Laboratory results: patent publication US20200375929A1, “METHODS AND COMPOSITIONS FOR THE TREATMENT OF DISEASES ASSOCIATED WITH CANCER, INFLAMMATION, OR IMMUNE RESPONSE” (Washington University, priority 2017, published 2020)
# Entries after “also recorded” stand apart in the source; their conditions may differ.
# How the values were obtained:
# EAE = EAE model of multiple sclerosis; type: in vivo, mouse; conditions: daily DI administration
# [1] = tested on: human primary keratinocytes; assay: Viability of primary keratinocytes (propidium iodide, flow cytometry); type: cell-based; conditions: DI 12 h
# Method: For ROS measurements, cells were treated with DI (250 μM), loaded with 10 μM CM-H2DCFDA (Invitrogen) at RT for 30 min in Hank's balanced salt solution (HBSS). After incubation, cell were rinsed with warm HBSS, harvested and directly analyzed. Mean fluorescent intensity (MFI) of living cells is shown. For Nfkbiz 3′UTR reporter analysis GFP signal was determined in live cells. For analysis of cell viability cells were stained with propidium iodide (1 μg/mL) and percentage of negative cells was plotted. Cells were acquired on CantoII or LSRII flow cytometers (Becton Dickinson), and data were analyzed with FlowJo v.9.5.2 software (Tree Star). For gating strategy see e.g., FIG. 25.
# Primary keratinocytes were isolated from C57BL/6 WT newborn mice or human foreskins as previously described. 2×10^5 cells in 1 ml of KFSM media (Gibco cat #10725-018) [Ca2+ at 0.05 mM (mouse) and 0.09 mM (human)] were plated in 12-well tissue culture plates. After 2-3 days of cultivation, mouse or human cells were treated with DI for 12 hours and then stimulated with mouse recombinant IL-17A (100 ng/mL; cat #421-ML, R&D Systems) or human recombinant IL-17A (100 ng/mL; cat #7955-IL, R&D Systems) for 4 h or as indicated.
# IκBζ = assay: IL-17A-induced IκBζ in primary mouse keratinocytes (western blot); type: cell-based; conditions: DI 12 h, IL-17A 100 ng/ml
# Method: Cells were lysed in RIPA Lysis Buffer System (Santa Cruz) and heat-denatured at 95° C. for 5 min in reducing sample buffer (BioRad). Proteins were separated on 4%-20% polyacrylamide gradient gels (BioRad) and transferred onto 0.45 μm pore size PVDF membranes (Millipore). Non-specific binding was blocked with 5% skim milk (or 5% BSA when phospho-proteins were analyzed), and membranes were probed with primary antibodies specific to Nrf2 (#12721), HO-1 (#70081), IκBζ (mouse specific, #93726), IκBζ(#9244), ATF3 (#D2Y5W), IRAK1 (#4504; sensitivity of IRAK1 detection diminishes upon IRAK1 K63 ubiquitination), phospho-IKK (Ser176/180, #2697), p62/SQSTM1 (#5114), phospho-eIF2α (Ser51, #9721), eIF2α (#5324) from Cell Signaling; GAPDH (sc-25778), IκBα (sc-1643), ATF3 (sc-188), SDHA (sc-166909) from Santa Cruz; NQO1 (ab28947) from Abeam, followed by incubation with anti-rabbit-HRP (1:10,000; sc-2030) or anti-mouse-HRP (1:10,000; sc-2031) from Santa Cruz and Clarity western ECL substrate (Bio-Rad). Membranes were exposed to X-Ray films (Research Products International Corp.) and developed using SRX-101A film processor (Konica Minolta). GAPDH run on the same blot was used as loading control. After scanning of original films image brightness of some blots was adjusted and bands were cropped using ImageJ. Densitometry was performed using ImageJ. […]
compound,measurement,setting,value
"C=C(CC(=O)OC)C(=O)OC [DI, dimethyl itaconate]",clinical development of EAE,EAE,ameliorated; also recorded: prevented clinical development of EAE
same,viability of primary keratinocytes,[1],not affected
same,IL-17-induced IκBζ induction,IκBζ,inhibited
